In patent US9802895B2, “Indole and benzimidazolecarboxamides as insecticides and acaricides” (BAYER CROPSCIENCE AKTIENGESELLSCHAFT, priority 2014, dated 2017):

Tests used:
[1] = test system: larvae of the mustard beetle (Phaedon cochleariae); assay: Phaedon cochleariae spray test (PHAECO); format: in vivo; conditions: 100 g/ha, after 7 days
Description: Phaedon cochleariae—Spray Test (PHAECO)
(§1) Solvent: 78.0 parts by weight of acetone • • 1.5 parts by weight of dimethylformamide
(§2) Emulsifier: alkylaryl polyglycol ether
(§3) To produce a suitable active compound formulation, 1 part by weight of active compound is dissolved using the specified parts by weight of solvent and made up with water containing an emulsifier concentration of 1000 ppm until the desired concentration is attained. To produce further test concentrations, the preparation is diluted with emulsifier-containing water.
After 7 days, the efficacy in % is determined. 100% means that all the beetle larvae have been killed; 0% means that no beetle larvae have been killed.

[2] = test system: caterpillars of the armyworm (Spodoptera frugiperda); assay: Spodoptera frugiperda spray test (SPODFR); format: in vivo; conditions: for efficacy: 100 g/ha, spray, after 7 days
Description: Spodoptera frugiperda—Spray Test (SPODFR) Solvent: 78.0 parts by weight of acetone • • 1.5 parts by weight of dimethylformamide Emulsifier: alkylaryl polyglycol ether To produce a suitable active compound formulation, 1 part by weight of active compound is dissolved using the specified parts by weight of solvent and made up with water containing an emulsifier concentration of 1000 ppm until the desired concentration is attained. To produce further test concentrations, the preparation is diluted with emulsifier-containing water. Leaf discs of maize (Zea mays) are sprayed with an active compound formulation of the desired concentration and, after drying, populated with caterpillars of the armyworm (Spodoptera frugiperda). After 7 days, the efficacy in % is determined 100% means that all the caterpillars have been killed; 0% means that no caterpillars have been killed. Spodoptera frugiperda—Spray Test (SPODFR) Solvent: 78.0 parts by weight of acetone • • 1.5 parts by weight of dimethylformamide Emulsifier: alkylaryl polyglycol ether To produce a suitable active compound formulation, 1 part by weight of active compound is dissolved using the specified parts by weight of solvent and made up with water containing an emulsifier concentration of 1000 ppm until the desired concentration is attained. To produce further test concentrations, the preparation is diluted with emulsifier-containing water. Leaf discs of maize (Zea mays) are sprayed with an active compound formulation of the desired concentration and, after drying, populated with caterpillars of the armyworm (Spodoptera frugiperda). After the desired period of time, the efficacy in % is determined. 100% means that all the caterpillars have been killed; 0% means that no caterpillars have been killed.

[3] = log P by HPLC (EEC directive 79/831 Annex V.A8); format: physicochemical; conditions: 43° C., acidic range pH 2.7; for log P: HPLC, reversed-phase column (C18)
Description: a) The determination of the M^+ by LC-MS in the acidic range is effected at pH 2.7, acetonitrile (contains 0.1% formic acid) and water as eluents; linear gradient from 10% acetonitrile to 95% acetonitrile, instrument: Agilent 1100 LC system, Agilent MSD system, HTS PAL. The log P values reported in the tables and Preparation Examples above were determined in accordance with EEC directive 79/831 Annex V.A8 by HPLC (High Performance Liquid Chromatography) using a reversed-phase column (C18). Temperature 43° C. The calibration is effected with unbranched alkan-2-ones (having 3 to 16 carbon atoms), for which the logP values are known.

[4] = test system: adult houseflies (Musca domestica); assay: Musca domestica test (MUSCDO); format: in vivo; conditions: 100 ppm, after 2 days
Description: Musca domestica Test (MUSCDO) Solvent: dimethyl sulphoxide To produce a suitable active compound formulation, 10 mg of active compound are mixed with 0.5 ml of dimethyl sulphoxide, and the concentrate is diluted with water to the desired concentration. Vessels containing a sponge treated with sugar solution and the active compound preparation of the desired concentration are populated with 10 adult houseflies (Musca domestica). After 2 days, the kill in % is determined. 100% means that all of the flies have been killed; 0% means that none of the flies have been killed.

[5] = test system: greenhouse red spider mite (Tetranychus urticae); assay: Tetranychus urticae spray test, OP-resistant (TETRUR); format: in vivo; conditions: 100 g/ha, spray, after 6 days
Description: Tetranychus urticae—Spray Test, OP-Resistant (TETRUR)
as §1, §2, §3
Discs of bean leaves (Phaseolus vulgaris) infested by all stages of the greenhouse red spider mite (Tetranychus urticae) are sprayed with an active compound formulation of the desired concentration.
After 6 days, the efficacy in % is determined 100% means that all the spider mites have been killed; 0% means that none of the spider mites have been killed.
Tetranychus urticae—Spray Test; OP-Resistant (TETRUR)
After the desired period of time, the efficacy in % is determined 100% means that all the spider mites have been killed; 0% means that none of the spider mites have been killed.

[6] = test system: L1 larvae of the Australian sheep blowfly (Lucilia cuprina); assay: Lucilia cuprina test (LUCICU); format: in vivo; conditions: 100 ppm, after 2 days
Description: Lucilia cuprina Test (LUCICU) Solvent: dimethyl sulphoxide To produce a suitable active compound formulation, 10 mg of active compound are mixed with 0.5 ml of dimethyl sulphoxide, and the concentrate is diluted with water to the desired concentration. About 20 L1 larvae of the Australian sheep blowfly (Lucilia cuprina) are transferred into a test vessel containing minced horsemeat and the active compound preparation of the desired concentration. After 2 days, the kill in % is determined 100% means that all the larvae have been killed; 0% means that none of the larvae have been killed.

[7] = test system: engorged adult female cattle ticks (Boophilus microplus); assay: Boophilus microplus injection test (BOOPMI inj); format: in vivo; conditions: assessed after 7 days
Description: Boophilus microplus Injection Test (BOOPMI inj) Solvent: dimethyl sulphoxide To produce a suitable active compound formulation, 10 mg of active compound are mixed with 0.5 ml of solvent and the concentrate is diluted with solvent to the desired concentration. 1 μl of the active compound solution is injected into the abdomen of 5 engorged adult female cattle ticks (Boophilus microplus). The animals are transferred into dishes and kept in a climate-controlled room. The efficacy is assessed after 7 days by laying of fertile eggs. Eggs which are not visibly fertile are stored in a climate-controlled cabinet until the larvae hatch after about 42 days. An efficacy of 100% means that none of the ticks has laid any fertile eggs; 0% means that all the eggs are fertile.

[8] = test system: adult cat fleas (Ctenocephalides felis); assay: Ctenocephalides felis oral test (CTECFE); format: in vivo; conditions: 100 ppm, oral in cattle blood, after 2 days
Description: Ctenocephalides felis-Oral Test ([…]) Solvent: dimethyl sulphoxide To produce a suitable active compound formulation, 10 mg of active compound are mixed with 0.5 ml of dimethyl sulphoxide. Dilution with citrated cattle blood gives the desired concentration. About 20 unfed adult cat fleas (Ctenocephalides felis) are placed into a chamber which is closed at the top and bottom with gauze. A metal cylinder whose bottom end is closed with parafilm is placed onto the chamber. The cylinder contains the blood/active compound preparation, which can be imbibed by the fleas through the parafilm membrane. After 2 days, the kill in % is determined 100% means that all of the fleas have been killed; 0% means that none of the fleas have been killed.

CCn1c(C(=O)NC(c2cc(Cl)c(F)c(Cl)c2F)C(F)(F)F)cc2cc(C(=O)NC3(C(N)=S)CC3)c(Cl)cc21 (centres unmarked) [I-01, N5-(1-Carbamothioylcyclopropyl)-6-chloro-N2-[1-(3,5-dichloro-2,4-difluorophenyl)-2,2,2-trifluoroethyl]-1-ethylindole-2,5-dicarboxamide]
4.25: chromatographic logP ([3]; reversed-phase C18 HPLC column, pH 2.7, HPLC)
100%: efficacy [1] | efficacy [2] | % efficacy (mortality) at a single application rate at 0.8 g/ha ([2]; Spodoptera frugiperda, 168 h, SPODFR, 0.8 g/ha, 7 dat) | % efficacy (mortality) at a single application rate at 4 g/ha ([2]; Spodoptera frugiperda, 168 h, SPODFR, 4 g/ha, 7 dat) | efficacy (kill in %) [4] | efficacy [5] | efficacy (kill in %) [6] | efficacy (laying of fertile eggs) [7] | efficacy (kill in %) [8]

CCn1c(C(=O)NC(c2cc(Cl)c(F)c(Cl)c2)C(F)(F)F)cc2cc(C(=O)NC3(C(N)=S)CC3)c(Cl)cc21 (centres unmarked) [I-02]
4.04: log P [3]
100%: efficacy [1] | efficacy [2] | % efficacy ([2]; SPODFR, 0.8 g/ha, 7 dat) | % efficacy ([2]; SPODFR, 4 g/ha, 7 dat) | efficacy (kill in %) [4] | efficacy [5] | efficacy (kill in %) [6] | efficacy (laying of fertile eggs) [7] | efficacy (kill in %) [8]

CCn1c(C(=O)NC(c2ccc(F)c(C(F)(F)F)c2)C(F)(F)F)cc2cc(C(=O)NC3(C(N)=S)CC3)c(Cl)cc21 (centres unmarked) [I-03]
100%: efficacy [1] | efficacy [2] | % efficacy ([2]; SPODFR, 0.8 g/ha, 7 dat) | % efficacy ([2]; SPODFR, 4 g/ha, 7 dat) | efficacy (kill in %) [4] | efficacy (kill in %) [6] | efficacy (laying of fertile eggs) [7] | efficacy (kill in %) [8]
3.70: log P [3]
90%: efficacy [5]

CCn1c(C(=O)NC(c2ccc(F)c(Cl)c2)C(F)(F)F)cc2cc(C(=O)NC3(C(N)=S)CC3)c(Cl)cc21 (centres unmarked) [I-04]
3.57: log P [3]
100%: efficacy [1] | efficacy [2] | % efficacy ([2]; SPODFR, 0.8 g/ha, 7 dat) | % efficacy ([2]; SPODFR, 4 g/ha, 7 dat) | efficacy (kill in %) [4] | efficacy [5] | efficacy (kill in %) [6] | efficacy (laying of fertile eggs) [7] | efficacy (kill in %) [8]

CCn1c(C(=O)NC(c2cc(Cl)c(Cl)c(Cl)c2)C(F)(F)F)cc2cc(C(=O)NC3(C(N)=S)CC3)c(Cl)cc21 (centres unmarked) [I-05]
4.33: log P [3]
90%: efficacy [5]
100%: efficacy [1] | efficacy [2] | efficacy (kill in %) [4] | efficacy (kill in %) [6] | efficacy (laying of fertile eggs) [7] | efficacy (kill in %) [8]

CCn1c(C(=O)NC(c2ccc(Cl)c(C(F)(F)F)c2)C(F)(F)F)cc2cc(C(=O)NC3(C(N)=S)CC3)c(Cl)cc21 (centres unmarked) [I-07]
67%: % efficacy ([2]; SPODFR, 0.8 g/ha, 7 dat)
100%: efficacy [1] | efficacy [2] | % efficacy ([2]; SPODFR, 4 g/ha, 7 dat) | efficacy (kill in %) [4] | efficacy [5] | efficacy (kill in %) [6] | efficacy (laying of fertile eggs) [7] | efficacy (kill in %) [8]
3.96: log P [3]

CCn1c(C(=O)NC(c2cc(F)c(Cl)c(Cl)c2)C(F)(F)F)cc2cc(C(=O)NC3(C(N)=S)CC3)c(Cl)cc21 (centres unmarked) [I-09]
4.02: log P [3]
100%: efficacy [1] | efficacy [2] | efficacy (kill in %) [4] | efficacy [5] | efficacy (kill in %) [6] | efficacy (laying of fertile eggs) [7] | efficacy (kill in %) [8]

CCn1c(C(=O)NC(c2cc(F)cc(C(F)(F)F)c2)C(F)(F)F)cc2cc(C(=O)NC3(C(N)=S)CC3)c(Cl)cc21 (centres unmarked) [I-10]
100%: efficacy [1] | efficacy [2] | % efficacy ([2]; SPODFR, 0.8 g/ha, 7 dat) | % efficacy ([2]; SPODFR, 4 g/ha, 7 dat) | efficacy (kill in %) [4] | efficacy [5] | efficacy (kill in %) [6] | efficacy (laying of fertile eggs) [7] | efficacy (kill in %) [8]
3.81: log P [3]

CCn1c(C(=O)NC(c2ccc(Cl)c(C(F)(F)F)c2)C(F)(F)F)cc2cc(C(=O)NC3(C(N)=S)CC3)c(C)cc21 (centres unmarked) [I-13]
3.89: log P [3]
100%: efficacy [1] | efficacy [2] | efficacy (kill in %) [4] | efficacy [5] | efficacy (kill in %) [6] | efficacy (laying of fertile eggs) [7] | efficacy (kill in %) [8]

CCn1c(C(=O)NC(c2cc(Cl)cc(Cl)c2)C(F)F)cc2cc(C(=O)NC3(C(N)=S)CC3)c(Cl)cc21 (centres unmarked) [I-24]
80%: efficacy (kill in %) [4]
100%: efficacy [1] | efficacy [2] | efficacy [5] | efficacy (kill in %) [6] | efficacy (laying of fertile eggs) [7] | efficacy (kill in %) [8]
3.65: log P [3]
